Data as given in ChEMBL document CHEMBL1201862, “PubChem BioAssay data set” (2004).
Calls of active or inactive are those of the source.

How the values were obtained:
Beta-galactosidase [1] = biological target: T1, Beta-galactosidase (Escherichia coli, UniProt Q8VNN2); experiment: Dose response counterscreen for EBI2 assay utilizing the enzyme, b-galactosidase.; type: functional
Streptococcus [2] = experiment: GAS UMAA2166 growth inhibition – luminescence, BacTiterGlo, counter-screen for streptokinase expression inhibitor project, dose response (AID 1915); type: functional, organism-based;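 note: potency for reduction of bacterial viability or growth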
[3] = test system: Streptococcus sp. 'group A'; experiment: Streptococcus pyogenes SK(-)GAS viability under kanamycin – luminescence, BacTiterGlo, confirmation, counter-screen for streptokinase expression inhibitor project, dose response (AID 1900); type: functional, organism-based
Streptokinase A = biological target: T2, Streptokinase A (Streptococcus pyogenes serotype M1, UniProt P10520); experiment: viability-normalized secreted streptokinase activity reduction – plasminogen activation absorbance, OD405, dose response (AID 1914); type: functional, Streptococcus pyogenes M1 GAS;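 note: secreted streptokinase activity via plasminogen activation per viability signal from cell pellet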
T2 sequence (P10520 whole entry): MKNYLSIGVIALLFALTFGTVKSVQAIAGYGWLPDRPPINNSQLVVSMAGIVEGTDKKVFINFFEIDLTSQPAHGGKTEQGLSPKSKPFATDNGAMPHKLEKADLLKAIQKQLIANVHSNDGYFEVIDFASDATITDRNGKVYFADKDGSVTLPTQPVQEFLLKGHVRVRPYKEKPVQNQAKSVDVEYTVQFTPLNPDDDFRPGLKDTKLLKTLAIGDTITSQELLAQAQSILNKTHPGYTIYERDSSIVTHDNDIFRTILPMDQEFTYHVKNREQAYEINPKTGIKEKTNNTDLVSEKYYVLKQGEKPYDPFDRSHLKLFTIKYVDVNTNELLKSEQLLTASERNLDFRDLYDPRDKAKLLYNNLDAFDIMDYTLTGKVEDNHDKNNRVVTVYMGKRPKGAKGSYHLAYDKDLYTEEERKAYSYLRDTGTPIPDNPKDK

Streptococcus [4] = experiment: Luminescence Microorganism-Based Dose Response Follow up to Identify Compounds Cytotoxic to Streptococcus. [Related pubchem assays: 1677 (Project Summary), 1915, 1914, 1902 (Retest at Dose), 1900 (Counter Screen), 1662 (Primary HTS)]; type: functional, organism-based
[5] = biological target: Lysosomal acid glucosylceramidase (Homo sapiens, UniProt P04062); experiment: Dose response cell-based high throughput screening assay to identify enhancers of beta-glucosidase activity. [Related pubchem assays: 784 ]; type: functional
[6] = biological target: T3, Eukaryotic translation initiation factor 2-alpha kinase 3 (Homo sapiens, UniProt Q9NZJ5); experiment: Counterscreen assay for PERK inhibitors: Dose response cell-based high throughput screening assay to measure inhibition of PERK at 6 hours. [Related pubchem assays: 1522, 1416 ]; type: functional
T3 sequence (Q9NZJ5 whole entry): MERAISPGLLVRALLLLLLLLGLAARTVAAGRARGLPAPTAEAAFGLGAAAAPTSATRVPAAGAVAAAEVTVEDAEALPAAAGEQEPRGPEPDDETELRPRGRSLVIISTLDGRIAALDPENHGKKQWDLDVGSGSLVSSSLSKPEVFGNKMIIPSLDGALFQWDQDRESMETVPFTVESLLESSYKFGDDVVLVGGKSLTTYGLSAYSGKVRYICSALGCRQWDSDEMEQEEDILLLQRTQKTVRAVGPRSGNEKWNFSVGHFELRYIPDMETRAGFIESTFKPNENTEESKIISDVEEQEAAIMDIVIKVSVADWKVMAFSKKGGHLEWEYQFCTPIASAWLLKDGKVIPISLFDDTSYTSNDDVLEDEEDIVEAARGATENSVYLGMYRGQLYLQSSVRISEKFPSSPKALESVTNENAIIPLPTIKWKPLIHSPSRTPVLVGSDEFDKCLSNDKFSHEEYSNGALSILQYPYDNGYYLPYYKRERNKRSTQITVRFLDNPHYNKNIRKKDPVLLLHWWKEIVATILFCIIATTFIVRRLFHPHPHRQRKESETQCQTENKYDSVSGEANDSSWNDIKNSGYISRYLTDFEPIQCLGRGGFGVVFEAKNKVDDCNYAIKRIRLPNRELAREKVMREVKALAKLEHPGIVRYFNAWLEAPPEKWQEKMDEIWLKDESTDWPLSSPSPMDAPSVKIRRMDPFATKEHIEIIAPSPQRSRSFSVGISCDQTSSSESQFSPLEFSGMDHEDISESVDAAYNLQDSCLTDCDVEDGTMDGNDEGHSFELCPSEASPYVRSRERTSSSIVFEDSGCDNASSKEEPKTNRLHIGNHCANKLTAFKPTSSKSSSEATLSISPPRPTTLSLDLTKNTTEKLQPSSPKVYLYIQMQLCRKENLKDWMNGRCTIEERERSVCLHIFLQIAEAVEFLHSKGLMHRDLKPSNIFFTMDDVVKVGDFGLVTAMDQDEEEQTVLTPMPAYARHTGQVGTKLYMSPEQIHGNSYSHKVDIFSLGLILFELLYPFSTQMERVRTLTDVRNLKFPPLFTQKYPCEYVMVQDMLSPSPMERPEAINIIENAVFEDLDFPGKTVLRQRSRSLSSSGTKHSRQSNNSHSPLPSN

[7] = biological target: T3, Eukaryotic translation initiation factor 2-alpha kinase 3; experiment: Dose response cell-based high-throughput screening assay to measure PERK inhibition. [Related pubchem assays: 1416 ]; type: functional
[8] = biological target: Melanin-concentrating hormone receptor 1 (Homo sapiens, UniProt Q99705); experiment: Fluorescence-based counterscreen for antagonists of the G-protein coupled receptor 7 (GPR7): cell-based high throughput dose response assay to identify antagonists of the melanin-concentrating hormone receptor 1 (MCHR1).; type: functional
[9] = biological target: T4, Neuropeptides B/W receptor type 1 (Homo sapiens, UniProt P48145); experiment: Fluorescence-based dose response cell-based high throughput screening assay to identify antagonists of the G-protein coupled receptor 7 (GPR7). [Related pubchem assays: 1952 (Screening assay (GPR7 antagonists).), 1880 (Summary AID.)]; type: functional
T4 sequence (P48145 whole entry): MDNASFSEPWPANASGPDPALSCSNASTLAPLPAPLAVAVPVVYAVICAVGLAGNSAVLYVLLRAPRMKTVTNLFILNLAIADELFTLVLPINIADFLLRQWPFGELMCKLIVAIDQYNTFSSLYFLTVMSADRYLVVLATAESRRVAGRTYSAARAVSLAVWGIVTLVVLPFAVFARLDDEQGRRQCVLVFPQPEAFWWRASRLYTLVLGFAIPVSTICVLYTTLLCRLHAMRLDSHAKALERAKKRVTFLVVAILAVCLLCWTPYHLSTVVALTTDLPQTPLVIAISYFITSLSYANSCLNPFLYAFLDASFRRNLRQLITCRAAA

[10] = biological target: C-C chemokine receptor type 6 (Homo sapiens, UniProt P51684); experiment: antagonism of CCR6 beta-arrestin recruitment – cell-based, luminescent beta-arrestin readout, dose response (AID 504728); type: functional
Genome polyprotein = Genome polyprotein (dengue virus type 2, UniProt P29990); experiment: flavivirus cap methylation enzyme inhibition – biochemical, confirmation dose response, primary screen (AID 588689); type: functional
Vero = experiment: viability of Vero cells under compound – cytotoxicity control for flavivirus capping enzyme inhibitors (AID 588742); type: functional; settings: Chlorocebus sabaeus
Beta-galactosidase [11] = biological target: T1, Beta-galactosidase; experiment: detection-enzyme interference by beta-gal modulators – biochemical, E. coli enzyme, set 3, artefact control for CCR6 antagonist project, dose response (AID 504712); type: functional
[12] = biological target: T5, Rac GTPase-activating protein 1 (Homo sapiens, UniProt Q9H0H5); experiment: blockers of MgcRacGAP-driven Rac1 GTP hydrolysis – biochemical, ADP Hunter fluorescence, primary and confirmatory, confirmation (AID 624330); type: functional
T5 sequence (Q9H0H5 whole entry): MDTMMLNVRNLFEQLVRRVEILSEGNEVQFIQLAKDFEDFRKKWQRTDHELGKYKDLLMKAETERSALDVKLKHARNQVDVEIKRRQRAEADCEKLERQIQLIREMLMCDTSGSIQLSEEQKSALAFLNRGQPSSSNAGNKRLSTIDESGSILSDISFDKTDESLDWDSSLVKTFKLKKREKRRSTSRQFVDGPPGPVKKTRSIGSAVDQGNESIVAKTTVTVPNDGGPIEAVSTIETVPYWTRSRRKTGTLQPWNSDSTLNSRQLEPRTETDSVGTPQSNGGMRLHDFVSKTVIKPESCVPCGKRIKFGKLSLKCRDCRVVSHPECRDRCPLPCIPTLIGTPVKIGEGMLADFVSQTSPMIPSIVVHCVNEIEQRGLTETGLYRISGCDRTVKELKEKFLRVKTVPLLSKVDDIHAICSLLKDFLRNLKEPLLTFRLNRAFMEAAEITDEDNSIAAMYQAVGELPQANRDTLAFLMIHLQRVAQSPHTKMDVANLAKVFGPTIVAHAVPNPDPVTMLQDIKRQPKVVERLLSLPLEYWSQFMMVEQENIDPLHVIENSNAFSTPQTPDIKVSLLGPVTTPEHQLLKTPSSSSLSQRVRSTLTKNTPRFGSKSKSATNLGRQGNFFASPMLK

[13] = loss of viability in HepG2 cells – cell-based, CellTiter-Glo, cherry-picked, cytotoxicity control for Shn3 inhibitor project, dose response (AID 624134); type: functional
Fatty acid synthase [14] = biological target: T6, Fatty acid synthase (Homo sapiens, UniProt P49327); experiment: inhibition of human FAS-TE enzyme activity – biochemical, endpoint fluorescence intensity, uHTS hits, dose response (AID 624327); type: functional;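 note: fluorescence from hydrolysis of an O-methyl fluorescein acyl ester substrate by the enzyme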
[15] = non-specific 3'UTR reporter inhibition in Clone20-Shn3RL – cell-based, Renilla luciferase, cherry-picked, counter-screen for Shn3 inhibitor project, dose response (AID 624133); type: functional
Fatty acid synthase [16] = biological target: T6, Fatty acid synthase; experiment: inhibition of human FAS-TE enzyme activity – biochemical, kinetic fluorescence intensity, dose response (AID 624326); type: functional;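 note: rate of fluorescence rise from hydrolysis of a fluorogenic O-methyl fluorescein ester substrate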
[17] = viability loss in HeLa cells – cytotoxicity control for MgcRacGAP inhibitor project, dose response (AID 624300); type: functional
[18] = reduction of Shn3 3'UTR-driven luciferase in osteoblasts – cell-based, Clone20 osteoblasts, firefly luciferase, cherry-picked, dose response (AID 624132); type: functional;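 note: firefly luciferase luminescence from reporter carrying the Shn3 3'UTR in osteoblasts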
[19] = biological target: T7, Voltage-gated N-type calcium channel alpha-1B subunit/Amyloid beta A4 precursor protein-binding family A member 1 (Homo sapiens, UniProt Q00975+Q02410); experiment: disruptors of Mint-PDZ/N-type channel peptide interaction – biochemical, HTRF, set 2, SAR follow-up (AID 434980); type: functional
[20] = biological target: T7, Voltage-gated N-type calcium channel alpha-1B subunit/Amyloid beta A4 precursor protein-binding family A member 1; experiment: disruptors of Mint-PDZ/N-type channel peptide interaction – biochemical, HTRF, SAR follow-up (AID 2489); type: functional
[21] = biological target: Metabotropic glutamate receptor 4 (Rattus norvegicus, UniProt P31423); experiment: Modulation of the Metabotropic Glutamate Receptor mGluR4: Rat PAM Potency. [Related pubchem assays (depositor defined):AID2437, AID2807]; type: functional
[22] = biological target: FAD-linked sulfhydryl oxidase ALR (Homo sapiens, UniProt P55789); experiment: ALR-catalysed DTT oxidation blockers – biochemical, H2O2 detection, luminescence, cherry-pick, dose response (AID 493248)
Chain of FAD-linked sulfhydryl oxidase ALR (P55789 whole entry): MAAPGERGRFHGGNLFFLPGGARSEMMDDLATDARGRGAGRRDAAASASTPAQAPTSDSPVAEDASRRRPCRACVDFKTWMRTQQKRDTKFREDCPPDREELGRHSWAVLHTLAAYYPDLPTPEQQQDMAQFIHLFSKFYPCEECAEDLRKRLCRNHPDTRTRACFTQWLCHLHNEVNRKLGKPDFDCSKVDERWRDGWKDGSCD

T1 sequence (Q8VNN2 whole entry): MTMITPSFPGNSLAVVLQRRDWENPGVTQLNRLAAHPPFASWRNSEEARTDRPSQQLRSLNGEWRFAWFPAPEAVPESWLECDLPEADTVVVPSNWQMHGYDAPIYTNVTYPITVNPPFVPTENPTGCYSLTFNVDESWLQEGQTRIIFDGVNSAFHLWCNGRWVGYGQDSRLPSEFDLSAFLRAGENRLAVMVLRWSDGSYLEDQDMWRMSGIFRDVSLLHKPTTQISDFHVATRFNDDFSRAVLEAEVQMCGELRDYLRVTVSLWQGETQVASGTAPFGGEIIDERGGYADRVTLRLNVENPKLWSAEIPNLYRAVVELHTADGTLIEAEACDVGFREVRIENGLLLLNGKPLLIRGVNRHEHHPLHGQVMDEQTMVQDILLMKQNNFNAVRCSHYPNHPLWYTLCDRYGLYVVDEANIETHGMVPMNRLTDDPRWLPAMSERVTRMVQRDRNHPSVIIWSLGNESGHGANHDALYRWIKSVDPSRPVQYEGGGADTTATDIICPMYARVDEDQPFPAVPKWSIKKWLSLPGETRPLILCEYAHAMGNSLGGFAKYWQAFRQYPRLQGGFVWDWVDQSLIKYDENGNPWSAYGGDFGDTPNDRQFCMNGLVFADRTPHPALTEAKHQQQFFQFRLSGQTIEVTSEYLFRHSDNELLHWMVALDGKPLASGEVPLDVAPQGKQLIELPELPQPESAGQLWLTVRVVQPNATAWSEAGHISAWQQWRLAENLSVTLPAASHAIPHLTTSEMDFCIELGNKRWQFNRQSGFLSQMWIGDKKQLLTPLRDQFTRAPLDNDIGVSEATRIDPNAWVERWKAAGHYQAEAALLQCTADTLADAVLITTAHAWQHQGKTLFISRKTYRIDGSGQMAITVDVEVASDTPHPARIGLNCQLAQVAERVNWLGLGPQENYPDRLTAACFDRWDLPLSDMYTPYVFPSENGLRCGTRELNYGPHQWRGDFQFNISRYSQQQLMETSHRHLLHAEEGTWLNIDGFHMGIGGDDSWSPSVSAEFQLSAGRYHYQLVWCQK
Chain of Lysosomal acid glucosylceramidase (P04062 whole entry): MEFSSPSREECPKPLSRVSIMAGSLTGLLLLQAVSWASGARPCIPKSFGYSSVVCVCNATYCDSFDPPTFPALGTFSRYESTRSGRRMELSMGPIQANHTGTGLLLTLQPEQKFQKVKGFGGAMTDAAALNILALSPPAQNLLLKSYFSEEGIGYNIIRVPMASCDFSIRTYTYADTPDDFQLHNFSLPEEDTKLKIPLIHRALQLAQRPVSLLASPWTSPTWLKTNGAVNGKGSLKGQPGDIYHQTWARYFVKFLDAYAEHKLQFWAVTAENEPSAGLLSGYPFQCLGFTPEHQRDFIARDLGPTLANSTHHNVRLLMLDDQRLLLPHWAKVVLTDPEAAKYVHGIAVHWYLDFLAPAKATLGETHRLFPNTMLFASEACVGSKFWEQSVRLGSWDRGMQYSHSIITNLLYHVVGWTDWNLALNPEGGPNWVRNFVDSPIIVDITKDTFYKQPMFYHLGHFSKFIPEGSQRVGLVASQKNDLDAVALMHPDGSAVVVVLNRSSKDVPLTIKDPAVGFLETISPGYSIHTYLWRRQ
Chain of C-C chemokine receptor type 6 (P51684 whole entry): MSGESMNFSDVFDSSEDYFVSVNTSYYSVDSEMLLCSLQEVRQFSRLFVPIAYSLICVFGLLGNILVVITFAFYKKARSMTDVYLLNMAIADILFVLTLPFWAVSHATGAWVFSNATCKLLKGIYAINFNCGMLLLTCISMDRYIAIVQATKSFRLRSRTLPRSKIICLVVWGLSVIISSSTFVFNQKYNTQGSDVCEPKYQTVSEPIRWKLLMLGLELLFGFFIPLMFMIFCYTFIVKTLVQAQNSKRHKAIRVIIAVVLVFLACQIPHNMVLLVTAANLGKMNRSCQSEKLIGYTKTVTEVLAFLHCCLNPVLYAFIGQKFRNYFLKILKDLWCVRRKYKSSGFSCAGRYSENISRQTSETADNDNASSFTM
T6 sequence (P49327 whole entry): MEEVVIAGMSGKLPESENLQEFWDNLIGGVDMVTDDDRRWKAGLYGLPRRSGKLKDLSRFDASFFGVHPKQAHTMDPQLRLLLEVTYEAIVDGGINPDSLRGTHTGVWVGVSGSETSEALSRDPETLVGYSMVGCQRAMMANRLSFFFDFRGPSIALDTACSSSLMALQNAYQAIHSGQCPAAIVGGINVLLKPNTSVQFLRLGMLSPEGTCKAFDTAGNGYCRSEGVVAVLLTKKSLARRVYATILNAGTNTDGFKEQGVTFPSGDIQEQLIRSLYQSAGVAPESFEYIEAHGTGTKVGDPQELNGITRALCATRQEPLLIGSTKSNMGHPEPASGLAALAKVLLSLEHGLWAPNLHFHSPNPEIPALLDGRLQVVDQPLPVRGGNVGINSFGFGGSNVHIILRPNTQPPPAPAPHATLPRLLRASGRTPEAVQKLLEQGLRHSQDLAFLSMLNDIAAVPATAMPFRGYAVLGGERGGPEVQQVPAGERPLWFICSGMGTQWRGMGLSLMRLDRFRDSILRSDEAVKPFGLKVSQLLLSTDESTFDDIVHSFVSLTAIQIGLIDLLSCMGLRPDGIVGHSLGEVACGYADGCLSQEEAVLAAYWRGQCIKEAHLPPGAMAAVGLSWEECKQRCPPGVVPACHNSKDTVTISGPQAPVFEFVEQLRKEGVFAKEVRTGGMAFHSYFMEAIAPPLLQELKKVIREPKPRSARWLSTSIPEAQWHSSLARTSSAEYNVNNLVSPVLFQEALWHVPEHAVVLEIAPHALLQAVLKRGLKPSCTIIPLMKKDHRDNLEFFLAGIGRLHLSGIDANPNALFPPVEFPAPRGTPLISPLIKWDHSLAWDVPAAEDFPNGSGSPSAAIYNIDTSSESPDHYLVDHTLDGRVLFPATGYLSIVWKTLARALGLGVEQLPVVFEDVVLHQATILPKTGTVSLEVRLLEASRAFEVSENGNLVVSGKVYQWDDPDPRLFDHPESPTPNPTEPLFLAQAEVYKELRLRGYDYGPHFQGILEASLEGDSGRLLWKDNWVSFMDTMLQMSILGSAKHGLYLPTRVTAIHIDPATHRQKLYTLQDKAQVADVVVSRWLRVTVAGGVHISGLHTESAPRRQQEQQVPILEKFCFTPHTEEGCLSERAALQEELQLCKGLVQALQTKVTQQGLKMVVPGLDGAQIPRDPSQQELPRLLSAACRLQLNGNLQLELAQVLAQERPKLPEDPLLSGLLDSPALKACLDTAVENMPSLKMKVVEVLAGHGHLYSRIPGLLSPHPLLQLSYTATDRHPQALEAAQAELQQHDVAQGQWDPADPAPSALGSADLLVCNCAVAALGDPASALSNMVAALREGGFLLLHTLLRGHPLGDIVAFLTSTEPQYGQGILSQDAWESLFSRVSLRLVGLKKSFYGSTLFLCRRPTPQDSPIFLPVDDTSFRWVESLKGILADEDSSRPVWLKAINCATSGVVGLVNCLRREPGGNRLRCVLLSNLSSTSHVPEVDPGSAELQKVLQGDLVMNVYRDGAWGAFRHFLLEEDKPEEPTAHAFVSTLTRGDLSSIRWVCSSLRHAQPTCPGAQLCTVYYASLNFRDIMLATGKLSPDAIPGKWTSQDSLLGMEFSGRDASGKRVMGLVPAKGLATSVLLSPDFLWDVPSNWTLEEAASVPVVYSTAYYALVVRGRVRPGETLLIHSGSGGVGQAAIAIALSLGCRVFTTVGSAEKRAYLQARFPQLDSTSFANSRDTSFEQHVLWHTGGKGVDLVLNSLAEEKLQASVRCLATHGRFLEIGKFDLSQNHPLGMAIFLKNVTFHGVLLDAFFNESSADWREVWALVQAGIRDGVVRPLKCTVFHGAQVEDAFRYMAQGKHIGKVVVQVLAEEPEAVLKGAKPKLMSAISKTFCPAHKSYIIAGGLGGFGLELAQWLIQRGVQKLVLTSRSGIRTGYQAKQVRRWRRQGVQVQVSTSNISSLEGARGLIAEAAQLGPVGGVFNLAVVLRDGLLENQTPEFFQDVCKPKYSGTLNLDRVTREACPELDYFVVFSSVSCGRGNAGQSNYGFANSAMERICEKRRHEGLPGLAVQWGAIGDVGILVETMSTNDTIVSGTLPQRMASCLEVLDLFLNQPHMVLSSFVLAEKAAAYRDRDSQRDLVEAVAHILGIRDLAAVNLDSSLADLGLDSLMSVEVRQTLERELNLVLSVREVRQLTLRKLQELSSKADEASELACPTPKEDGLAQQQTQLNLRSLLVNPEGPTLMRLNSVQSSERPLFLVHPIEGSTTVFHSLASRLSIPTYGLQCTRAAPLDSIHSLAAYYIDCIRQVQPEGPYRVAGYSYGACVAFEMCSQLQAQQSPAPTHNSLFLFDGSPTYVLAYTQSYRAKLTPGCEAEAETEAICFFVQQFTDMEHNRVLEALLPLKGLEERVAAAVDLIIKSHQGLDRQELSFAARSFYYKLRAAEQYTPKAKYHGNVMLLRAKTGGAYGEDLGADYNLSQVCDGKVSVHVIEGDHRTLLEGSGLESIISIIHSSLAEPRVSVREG
Chain of Melanin-concentrating hormone receptor 1 (Q99705 whole entry): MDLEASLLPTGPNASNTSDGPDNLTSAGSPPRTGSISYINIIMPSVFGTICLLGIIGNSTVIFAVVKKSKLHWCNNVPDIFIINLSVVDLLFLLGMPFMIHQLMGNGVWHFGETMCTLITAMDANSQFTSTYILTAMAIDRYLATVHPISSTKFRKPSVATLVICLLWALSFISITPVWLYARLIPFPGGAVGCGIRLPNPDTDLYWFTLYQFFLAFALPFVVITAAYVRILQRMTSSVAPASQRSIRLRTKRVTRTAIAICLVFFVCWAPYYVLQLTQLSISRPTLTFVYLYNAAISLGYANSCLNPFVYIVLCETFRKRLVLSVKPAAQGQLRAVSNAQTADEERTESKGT

SMILES: COc1ccc2oc(C(=O)N3CCN(C(c4ccccc4)c4ccccc4)CC3)c(C)c2c1
- IC50 (Beta-galactosidase [1]): > 80 µM (inactive)
- EC50 (Streptococcus [2]): > 150 µM (not active)
- EC50 [3]: 32.2 µM (active)
- EC50 (Streptokinase A): 4.97 µM (active)
- EC50 (Streptococcus [4]): > 500 µM (not active)

SMILES: O=C(CCCn1c(=S)[nH]c2cc3c(cc2c1=O)OCO3)N1CCN(c2ncccn2)CC1
- EC50 [5]: > 50 µM (not active)

SMILES: CC(C)(C)NC(=O)CSc1nnc(-c2ccco2)n1Cc1ccco1
- EC50 [5]: > 50 µM (not active)

SMILES: Cc1cc2oc(=O)cc(CN(C)Cc3ccccc3)c2cc1C(C)C
- EC50 (Streptococcus [2]): > 150 µM (not active)
- EC50 [3]: 13.3 µM (active)
- EC50 (Streptokinase A): 8.46 µM (active)
- EC50 (Streptococcus [4]): > 500 µM (not active)

SMILES: Cc1ccc(NC(=O)COC(=O)CCc2c[nH]c(O)n2)cc1
- EC50 [6]: > 55.7 µM (not active)
- EC50 [7]: > 55.7 µM (not active)

SMILES: O=C(NC1CCCCCCC1)C1c2ccccc2C(=O)N1Cc1ccco1 (centres undefined)
- IC50 [8]: > 43.8 µM (not active)
- IC50 [9]: > 43.8 µM (not active)

SMILES: CC1(C)CC[C@]2(C(=O)n3ccnc3)CC[C@]3(C)[C@H](C(=O)C=C4[C@@]5(C)C=C(C#N)C(=O)C(C)(C)[C@@H]5CC[C@]43C)[C@@H]2C1
- IC50 [10]: 11.5 µM (active)
- IC50 (Genome polyprotein): 38.2 µM (active)
- CC50 (Vero): < 0.63 µM (active)
- IC50 (Beta-galactosidase [11]): > 66.6 µM (inactive)
- IC50 [12]: 20.7 µM (active)
- AC50 [13]: 5.13 µM (active)
- IC50 (Fatty acid synthase [14]): 2.85 µM (active)
- AC50 [15]: 0.376 µM (active)
- IC50 (Fatty acid synthase [16]): 1.77 µM (active)
- CC50 [17]: 5.19 µM (active)
- AC50 [18]: < 0.26 µM (active)

SMILES: O=C(c1cc(-c2ccco2)nc2ccccc12)N1CCCCC1Cc1ccccc1 (centres undefined)
- IC50 [19]: > 56.8 µM (inactive)
- IC50 [20]: > 56.8 µM (inactive)

SMILES: O=C(Nc1ccc(N2C(=O)[C@@H]3[C@H](C2=O)[C@H]2C=C[C@@H]3CC2)c(Cl)c1)c1ccccn1
- EC50 [21]: 0.25 µM (active)

SMILES: CC(=O)c1ccc(N/N=C2/CCCNC2=O)cc1
- EC50 [6]: > 55.7 µM (not active)
- AC50 [22]: 3.67 µM (active)
- EC50 [7]: > 55.7 µM (not active)

SMILES: C=CCS/C(N)=N\N=C\c1cc(Br)cc([N+](=O)[O-])c1O
- IC50 [10]: > 66.6 µM (inactive)
- IC50 (Beta-galactosidase [11]): > 66.6 µM (inactive)
